{"source": "patent US20050163773A1", "about": "“Methods and pharmaceutical compositions for dopaminergic modulation of t-cell adhesion and activity” (priority 2001, published 2005)", "key": {"TNFα secretion": {"system": "TNFα secretion", "assay": "TNFα secretion by human peripheral T-cells (sandwich ELISA)", "format": "cell-based", "text": "(§1) The results are expressed as pg/ml.\n(§2) The results are expressed as pg/mi.\nas §1, §1, §1"}, "[1]": {"system": "Dopamine receptors on normal human T-cells", "details": "for blocking of DPAT-induced T-cell adhesion to fibronectin: DPAT 10 nM", "description": "Non-radioactive assessment of T-cell binding was performed as described in Material and Methods, results presented as the mean ±OD of bound T-cells from 4-6 wells.\nThe treated cells were suspended in adhesion medium and incubated (30 min., 37° C.) in a humidified 10% CO2 incubator. The cells were seeded in the fibronectin-coated microtiter plates, and the plates were then returned to the incubator for an additional 30 min. incubation. The amount of T-cell adhesion was determined as above."}, "IL-10 secretion [2]": {"system": "IL-10 secretion", "assay": "IL-10 secretion by human peripheral T-cells (sandwich ELISA)", "format": "cell-based", "details": "for inhibition of Dopamine-induced IL-10 secretion by receptor-specific antagonists: L-741,626 10^−7 M, U-Mal 10^−6 M, L-741,741 10^−6 M", "text": "The results are expressed as pg/ml IL-10. […] Immunostaining is with intracellular anti-IL-10 FITC conjugated (FL-1) and anti-CD4 PE conjugated (FL-2) antibodies, as described in Materials and Methods hereinbelow.\nas §2, §1, §1, §1"}, "normal human T-cells": {"system": "normal human T-cells", "assay": "T-cell adhesion assay (adhesion of human T-cells to fibronectin)", "details": "dose dependence, human T-cells", "description": "T-cell adhesion assay: In the majority of the experiments, adhesion of purified normal human T-cells to fibronectin was assayed with radioactively labeled T-cells as follows: normal human T-cells, purified from a fresh blood sample, were labeled with Na2[^51CrO4], washed, and resuspended in adhesion medium (RPMI-1640 supplemented with 2% BSA, 1 mM Ca^++, 1 mM Mg^++, 1% sodium pyruvate, 1% glucose, and 1% HEPES buffer). The cells were then pre-treated (30 min., 37° C.) with DPAT, and added to fibronectin coated (1 μg/well; Sigma Chemicals, St. Louis, Mo.) microtiter flat-bottomed 96 well plates (1×10^5 cells/100 μl/well). The plates were placed in a humidified incubator (37° C., 30 min., 10% CO2), and than washed thoroughly several times with PBS, to remove non-adherent T-cells. The adherent T-cells were lysed with 1% Tween 20 in 1N NaOH, and the radioactivity in the resulting supernatants was determined in a γ-counter. For each experimental group, results were expressed as the mean CPM±SD of bound T-cells from quadruplicate wells. DPAT-treated T-cell adhesion to BSA-(rather than fibronectin) coated wells, and untreated T-cell adhesion to fibronectin coated wells, were the standard negative controls.\nNon-radioactive T-cell adhesion assays: Alternatively, T-cell adhesion assays were performed with non-radioactively labeled cells, differing from the above protocol only in the final detection steps which were performed as follows: After the final washing of the adhesion plates and removal of the non adherent cells, the microtiter wells were supplemented with lysis and substrate solution (60 μl/well of: 0.5% Triton X-100 in water mixed with an equal volume of 7.5 mM p-nitrophenol-N-acetyl-β-D-glucosaminide, (Sigma Chemicals, St. Louis, Mo.) in 0.1M citrate buffer pH=5.0). The plates were then incubated (˜18hr) in a CO2-free 37° C. incubator, supplemented with stop solution (90 μl/well of 50 mM glycine, (Sigma Chemicals, St. Louis, Mo.) pH=10.4 containing 5 mM EDTA), and the optical density was measured at 405 nm in a standard Elisa reader."}, "IL-4 secretion": {"system": "IL-4 secretion", "details": "Dopamine 10^−8 M, 24 hours"}, "IL-10 secretion [3]": {"system": "IL-10 secretion", "details": "Dopamine 10^−8 M, 72 hours"}, "[4]": {"system": "normal human peripheral T-cells", "details": "Dopamine 10^−8 M, 48 hours"}, "[5]": {"system": "normal human peripheral T-cells"}, "α4β1 and α5β1 integrins": {"system": "α4β1 and α5β1 integrins", "assay": "Inhibition of induced T-cell adhesion to fibronectin with specific integrin blockers", "format": "cell-based, human", "details": "for blocking of DPAT-induced T-cell adhesion to fibronectin by integrin blockers: DPAT 10 nM; for blocking of DPAT-induced T-cell adhesion to fibronectin by integrin blockers / blocking of Dopamine-induced T-cell adhesion to fibronectin by integrin blockers: mAbs 15-25 μg/ml, peptides 50 μg/ml; for blocking of Dopamine-induced T-cell adhesion to fibronectin by integrin blockers: Dopamine 10 nM; for inhibition of PMA-induced T-cell adhesion to fibronectin by integrin blockers: PMA as positive control", "protocol": "The results are presented as the mean ±SD CPM of bound T-cells from quadruplicate wells. One experiment, representative of two, is presented for each of the three inducers of T-cell binding.\nThe treated cells were seeded in fibronectin-coated microtiter plates."}, "[6]": {"system": "SJL/J anti PLP 139-151 T-cells", "assay": "Experimental autoimmune encephalomyelitis (EAE) induced by encephalitogenic T-cells treated ex vivo", "format": "in vivo, mouse", "details": "U-Mal 10^−7 M, 5 minutes before DPAT"}, "[7]": {"system": "oxazalone-sensitized T-cells", "assay": "Passively transferred delayed type hypersensitivity (DTH) with T-cells treated ex vivo", "format": "in vivo, mouse", "protocol": "Lymph nodes were removed from oxazalone-sensitized mice, and the T-cell suspension was exposed ex-vivo to increasing concentrations of DPAT (FIG. 9A, DPAT […]-DPAT 10^−6M) as described for FIG. 8 hereinabove. Control T-cells were incubated with medium only (untreated T-cells). The T-cells were then washed, resuspended in PBS and injected intravenously into naive syngeneic mice. The ears of the recipient mice were than challenged with oxazalone, and the degree of ear swelling was measured by micrometer 24 hr later. DTH is expressed as the mean ±SD of ear swelling in units of 10^−2 mm. […] Oxazalone-sensitized T-cells were incubated ex vivo for one hour with either DPAT (10^−8 M, +DPAT) or U-Mal (10^−7 M, +U-Mal), or both. The T-cells were then washed, resuspended in PBS, injected intravenously into normal recipients, and DTH measured as described hereinabove. […] FIGS. 9A and 9B represent two individual experiments, each experimental group consisting of 8 mice.\nPassively transferred delayed type hypersenisitivity (DTH): Groups of 6-8 BALB/c female mice (The Jackson Laboratory, Bar Harbor, Mass., USA) were sensitized on the abdominal skin with 200 μt of 2% oxazalone dissolved in acetone/olive oil [4:1 vol/vol)] applied topically. Five days later, lymph nodes were removed from the sensitized mice, and a cell suspension prepared. The cells (3-5×10^6/ml in RPMI, no additional supplements) were than added for […] incubation ([…]. 37° C., 10% CO2 humidified incubator) with either DPAT, U-Mal, or both (in the latter combination the antagonist added 5 minutes before the agonist). The cells were than washed, resuspended in PBS, and injected IV (40×10^6 /mouse) into normal BALB/c recipients. Immediately afterwards the recipient mice were […] with 10 μl of 2% oxazalone in acetone/olive oil, applied topically to each side of the ear. A constant area of the ear was measured immediately before challenge and 24 hr after the challenge with a Mitutoyo engineer's micrometer. The individual measuring the ear swelling was unaware of the identity of the mice groups. The DTH reaction is expressed as the mean±SD (for each group) of the increment of ear swelling 24 hours after inoculation of the oxazalone-sensitized T-cells, in units of 10^−2 mm."}}, "note": "“Also recorded” adds a separate entry of the source."}
{"compound": "Oc1cc2c(cc1O)C(c1ccccc1)CNCC2", "note": "(centres unmarked) [SKF 38393]", "values": [{"measurement": "induction of TNFα secretion by receptor-specific Dopamine agonists", "setting": "TNFα secretion; agonist 10^−7 M, 24 hours", "result": "induced by D1"}]}
{"compound": "CC(C)(C)[C@]1(O)CCN2C[C@H]3c4ccccc4CCc4cccc(c43)[C@@H]2C1", "note": "[Butaclamol]", "values": [{"measurement": "blocking of DPAT-induced T-cell adhesion to fibronectin", "setting": "[1]", "result": "without effect"}]}
{"compound": "NCCc1ccc(O)c(O)c1", "note": "[Dopamine]", "values": [{"measurement": "Dopamine concentration inducing maximal IL-10 secretion", "setting": "IL-10 secretion [2]; 72 hours", "result": "10^−4 M"}, {"measurement": "Dopamine concentration with significant effect on IL-10 secretion", "setting": "IL-10 secretion [2]; 72 hours", "result": "≥ 10^−8 M"}, {"measurement": "increase in IL-10 secretion", "setting": "IL-10 secretion [2]; Dopamine 10 nM, 72 hours", "result": 2.5, "unit": "fold"}, {"measurement": "IL-10 secretion at excess Dopamine", "setting": "IL-10 secretion [2]; Dopamine 10^−3 M", "result": "drastic reduction in cytokine secretion"}, {"measurement": "time of maximal IL-10 secretion", "setting": "IL-10 secretion [2]; Dopamine 10^−8 M", "result": 72, "unit": "h"}, {"measurement": "IL-10 release", "setting": "IL-10 secretion [2]; Dopamine 10^−8 M, 72 hours, no antigen stimulation", "result": "induced a strong release of IL-10"}, {"measurement": "optimum concentration for induction of T-cell adhesion to fibronectin", "setting": "normal human T-cells", "result": 10, "unit": "nM"}, {"measurement": "IL-4 secretion", "setting": "IL-4 secretion", "result": "but not IFN-γ (FIG. 11B) or IL-4"}, {"measurement": "Dopamine concentration inducing maximal TNFα secretion", "setting": "TNFα secretion; 24 hours", "result": "10^−4 M"}, {"measurement": "Dopamine concentration with significant effect on TNFα secretion", "setting": "TNFα secretion; 24 hours", "result": "≥ 10^−8 M"}, {"measurement": "TNFα secretion at excess Dopamine", "setting": "TNFα secretion; Dopamine 10^−3 M", "result": "drastic reduction in cytokine secretion"}, {"measurement": "TNF-α release", "setting": "TNFα secretion; Dopamine 10^−8 M, 24 hours, no antigen stimulation", "result": "induced a strong release of TNF-α"}, {"measurement": "IL-10 secretion, cloned resting Th0 cells", "setting": "IL-10 secretion [3]", "result": "strong induction"}, {"measurement": "IL-10 secretion, cloned resting Th1 cells (\"forbidden\" cytokine)", "setting": "IL-10 secretion [3]", "result": "secreting significant amounts of IL-10"}, {"measurement": "IL-10 secretion, cloned resting Th2 cells", "setting": "IL-10 secretion [3]", "result": "strong induction"}, {"measurement": "increase in the number of IL-10 producing T-helper cells", "setting": "[4]", "result": 9, "unit": "%"}, {"measurement": "cellular death in normal T-cells", "setting": "[5]", "result": "induces cellular death"}, {"measurement": "r-RNA bands in total RNA (loss of viability)", "setting": "[5]; Dopamine 10^−3", "result": "near total absence of r-RNA bands"}]}
{"compound": "gly-arg-gly-glu-ser (GRGESP) [RGE-containing peptide, non-relevant RGE-containing control peptide]", "values": [{"measurement": "blocking of DPAT-induced T-cell adhesion to fibronectin by integrin blockers", "setting": "α4β1 and α5β1 integrins", "result": "No significant effect"}, {"measurement": "blocking of Dopamine-induced T-cell adhesion to fibronectin by integrin blockers", "setting": "α4β1 and α5β1 integrins", "result": "No significant effect"}, {"measurement": "inhibition of PMA-induced T-cell adhesion to fibronectin by integrin blockers", "setting": "α4β1 and α5β1 integrins", "result": "insensitivity"}]}
{"compound": "OC1(c2ccc(Cl)cc2)CCN(Cc2c[nH]c3ccccc23)CC1", "note": "[L-741,626]", "values": [{"measurement": "inhibition of Dopamine-induced IL-10 secretion by receptor-specific antagonists", "setting": "IL-10 secretion [2]; Dopamine 10^−8 M, 72 hours", "result": "inhibited by the D2"}]}
{"compound": "CCCN(CCC)C1Cc2cc(OC)c(OC)cc2C1.O=C(O)/C=C\\C(=O)O", "note": "[U-Mal, U-99194A maleate]", "values": [{"measurement": "inhibition of Dopamine-induced IL-10 secretion by receptor-specific antagonists", "setting": "IL-10 secretion [2]; Dopamine 10^−8 M, 72 hours", "result": "inhibited by the D2 and D3"}, {"measurement": "effect of pre-treatment on the DPAT suppressive effect in EAE", "setting": "[6]", "result": "prevented"}, {"measurement": "inhibition of Dopamine-induced TNFα secretion by receptor-specific antagonists", "setting": "TNFα secretion; Dopamine 10^−8 M, 24 hours, L-741,626 10^−7 M, U-Mal 10^−6 M, L-741,741 10^−6 M", "result": "inhibited by D3"}, {"measurement": "blocking of DPAT-induced T-cell adhesion to fibronectin", "setting": "[1]", "result": "succeeded in blocking"}, {"measurement": "independent effect on T-cell adhesion to fibronectin", "setting": "[1]; antagonist alone, data not shown", "result": "no independent effect"}, {"measurement": "toxic effects on the human T-cells", "setting": "[1]; data not shown", "result": "no toxic effects"}, {"measurement": "effect on DTH by itself", "setting": "[7]; U-Mal 10^−7 M alone", "result": "no effect by itself"}, {"measurement": "effect of pre-treatment on DPAT suppression of DTH", "setting": "[7]; U-Mal 10^−7 M, 5 minutes before DPAT 10^−8 M", "result": "near total block of protection; also recorded: prevented"}]}
{"compound": "gly-arg-gly-asp-ser (GRGDS) [RGD peptide]", "values": [{"measurement": "blocking of DPAT-induced T-cell adhesion to fibronectin by integrin blockers", "setting": "α4β1 and α5β1 integrins", "result": "effectively blocked"}, {"measurement": "blocking of Dopamine-induced T-cell adhesion to fibronectin by integrin blockers", "setting": "α4β1 and α5β1 integrins", "result": "effectively blocked"}, {"measurement": "inhibition of PMA-induced T-cell adhesion to fibronectin by integrin blockers", "setting": "α4β1 and α5β1 integrins", "result": "inhibition"}]}
